How the values were obtained:
[1] = target: T1, Mitogen-activated protein kinase kinase kinase 15 (Homo sapiens) (UniProt Q6ZN16); experiment: Inhibition of MAP3K15 Lys1 labeling site harbouring IAIKEIPER in human A-375 cells at 0.05 uM by KiNativ Profiling analysis relative to control; assay type: cell-based
T1 sequence (whole entry): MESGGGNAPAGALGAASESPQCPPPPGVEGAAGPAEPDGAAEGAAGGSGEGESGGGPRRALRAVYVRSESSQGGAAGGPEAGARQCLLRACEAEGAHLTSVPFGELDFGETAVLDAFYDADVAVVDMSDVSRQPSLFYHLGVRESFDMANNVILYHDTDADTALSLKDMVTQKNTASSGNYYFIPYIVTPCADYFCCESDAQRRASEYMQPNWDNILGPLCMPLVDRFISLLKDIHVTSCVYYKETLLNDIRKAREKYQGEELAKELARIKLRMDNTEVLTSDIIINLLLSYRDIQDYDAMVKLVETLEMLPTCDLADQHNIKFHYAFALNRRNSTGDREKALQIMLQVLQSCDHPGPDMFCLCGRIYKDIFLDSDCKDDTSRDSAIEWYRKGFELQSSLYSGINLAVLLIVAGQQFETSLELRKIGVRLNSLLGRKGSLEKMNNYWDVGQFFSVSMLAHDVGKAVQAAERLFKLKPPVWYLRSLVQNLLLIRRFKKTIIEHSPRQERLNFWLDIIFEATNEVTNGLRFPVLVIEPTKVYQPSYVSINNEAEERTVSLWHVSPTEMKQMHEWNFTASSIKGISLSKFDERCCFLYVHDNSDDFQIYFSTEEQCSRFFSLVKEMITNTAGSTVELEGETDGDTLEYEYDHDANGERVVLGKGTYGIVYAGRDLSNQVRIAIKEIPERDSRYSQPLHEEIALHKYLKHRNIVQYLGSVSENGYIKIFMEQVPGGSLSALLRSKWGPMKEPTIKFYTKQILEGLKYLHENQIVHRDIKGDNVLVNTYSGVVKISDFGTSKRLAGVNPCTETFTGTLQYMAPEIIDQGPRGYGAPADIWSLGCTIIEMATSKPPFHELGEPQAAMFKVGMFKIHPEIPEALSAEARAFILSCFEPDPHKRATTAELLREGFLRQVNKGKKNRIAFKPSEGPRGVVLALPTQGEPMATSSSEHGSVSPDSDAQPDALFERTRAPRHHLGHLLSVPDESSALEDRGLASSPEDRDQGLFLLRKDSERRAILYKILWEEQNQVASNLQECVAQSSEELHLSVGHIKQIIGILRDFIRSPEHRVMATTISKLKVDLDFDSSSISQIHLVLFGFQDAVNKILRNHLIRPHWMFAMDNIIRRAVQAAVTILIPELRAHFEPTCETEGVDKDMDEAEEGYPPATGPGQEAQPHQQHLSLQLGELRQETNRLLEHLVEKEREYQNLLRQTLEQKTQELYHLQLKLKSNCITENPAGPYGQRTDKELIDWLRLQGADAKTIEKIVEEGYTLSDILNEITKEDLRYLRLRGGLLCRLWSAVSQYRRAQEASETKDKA

[2] = target: T2, Serine/threonine-protein kinase TAO2 (Homo sapiens) (UniProt Q9UL54); experiment: Inhibition of TAOK2 (unknown origin) at 1 uM by Ambit Kinomescan binding assay relative to control
T2 sequence (whole entry): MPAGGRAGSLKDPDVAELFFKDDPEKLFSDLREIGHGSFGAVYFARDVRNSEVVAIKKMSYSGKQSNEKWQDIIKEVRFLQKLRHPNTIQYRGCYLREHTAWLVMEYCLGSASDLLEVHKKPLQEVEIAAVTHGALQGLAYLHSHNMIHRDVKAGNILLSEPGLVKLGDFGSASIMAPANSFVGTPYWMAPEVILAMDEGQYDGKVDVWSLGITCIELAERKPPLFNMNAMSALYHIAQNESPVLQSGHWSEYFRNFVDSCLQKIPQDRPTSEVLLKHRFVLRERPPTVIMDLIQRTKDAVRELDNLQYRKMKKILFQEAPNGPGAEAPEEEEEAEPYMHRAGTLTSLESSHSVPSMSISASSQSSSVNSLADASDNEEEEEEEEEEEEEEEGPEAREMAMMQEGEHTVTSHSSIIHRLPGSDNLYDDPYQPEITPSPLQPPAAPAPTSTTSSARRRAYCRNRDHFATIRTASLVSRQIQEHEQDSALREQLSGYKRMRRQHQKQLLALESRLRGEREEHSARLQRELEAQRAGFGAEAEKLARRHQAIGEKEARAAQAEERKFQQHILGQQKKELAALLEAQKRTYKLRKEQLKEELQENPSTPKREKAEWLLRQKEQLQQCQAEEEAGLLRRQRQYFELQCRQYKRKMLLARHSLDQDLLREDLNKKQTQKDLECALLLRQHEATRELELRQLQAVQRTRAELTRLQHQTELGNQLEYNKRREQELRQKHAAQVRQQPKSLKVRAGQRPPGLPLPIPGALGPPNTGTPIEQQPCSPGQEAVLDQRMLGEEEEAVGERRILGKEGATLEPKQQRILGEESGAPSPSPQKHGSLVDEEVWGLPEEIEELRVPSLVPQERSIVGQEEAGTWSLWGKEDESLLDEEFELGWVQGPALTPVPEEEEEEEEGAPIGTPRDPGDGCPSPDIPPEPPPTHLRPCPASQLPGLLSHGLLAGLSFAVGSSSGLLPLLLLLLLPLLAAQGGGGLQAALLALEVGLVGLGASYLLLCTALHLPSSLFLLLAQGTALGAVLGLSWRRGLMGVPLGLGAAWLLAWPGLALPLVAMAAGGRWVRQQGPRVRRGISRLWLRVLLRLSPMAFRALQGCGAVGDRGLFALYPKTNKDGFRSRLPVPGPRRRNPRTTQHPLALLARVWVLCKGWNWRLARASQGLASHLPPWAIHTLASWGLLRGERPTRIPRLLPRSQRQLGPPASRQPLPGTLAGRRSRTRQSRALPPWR

[3] = target: Rhodopsin kinase GRK1 (Homo sapiens) (UniProt Q15835); experiment: Inhibition of GRK1 (unknown origin) at 1 uM by Ambit Kinomescan binding assay relative to control; values are per cent of control
Rhodopsin kinase GRK1 (Homo sapiens), sequence (Q15835 whole entry): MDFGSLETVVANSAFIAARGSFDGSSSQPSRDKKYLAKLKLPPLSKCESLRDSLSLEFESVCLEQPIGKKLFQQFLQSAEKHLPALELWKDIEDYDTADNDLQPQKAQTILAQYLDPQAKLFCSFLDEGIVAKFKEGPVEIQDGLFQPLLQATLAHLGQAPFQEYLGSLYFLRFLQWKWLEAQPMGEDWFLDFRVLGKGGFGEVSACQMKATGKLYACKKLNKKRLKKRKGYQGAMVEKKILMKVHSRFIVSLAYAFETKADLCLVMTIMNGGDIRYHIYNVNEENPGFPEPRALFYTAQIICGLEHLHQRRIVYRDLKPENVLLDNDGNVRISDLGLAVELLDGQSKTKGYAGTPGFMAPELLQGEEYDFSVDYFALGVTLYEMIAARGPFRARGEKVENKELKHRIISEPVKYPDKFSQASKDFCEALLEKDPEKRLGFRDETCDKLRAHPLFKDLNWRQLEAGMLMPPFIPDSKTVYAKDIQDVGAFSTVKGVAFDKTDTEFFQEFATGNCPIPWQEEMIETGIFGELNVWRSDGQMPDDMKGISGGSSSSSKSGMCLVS

Structure (SMILES): CCN1CCN(Cc2ccc(NC(=O)c3ccc(C)c(Oc4ccnc5[nH]ccc45)c3)cc2C(F)(F)F)CC1
- inhibition [1]: 10.8%

Structure (SMILES): CCN1CCN(Cc2ccc(NC(=O)c3ccc(C)c(/C=C/c4cnc5[nH]ccc5c4OC)c3)cc2C(F)(F)F)CC1
- inhibition [2]: 16%
- residual activity [3]: 100%

From ChEMBL document CHEMBL5696442, “Discovery of type II inhibitors of TGFβ-activated kinase 1 (TAK1) and mitogen-activated protein kinase kinase kinase kinase 2 (MAP4K2)” (J Med Chem, 2015)
